According to US12318449B2 (Rutgers, The State University of New Jersey, priority 2012, dated 2025):

Experiments:
[1] = tested on: U87MG glioma cells; experiment: Western immunoblot for cleaved PARP; format: cell-based; conditions: riluzole 10, 25 or 50 μM for 4 days versus NT or vehicle
[2] = tested on: C8161 human melanoma cells; experiment: Cell cycle analysis (propidium iodide flow cytometry); format: cell-based; conditions: for Sub G1: 8 Gy, 25 uM riluzole, average of 3 experiments
Experimental: Cell pellets were fixed by drop-wise addition of ice-cold 70% ethanol and incubated overnight at 4° C. Fixed cells were washed twice with ice-cold PBS and resuspended in […] PBS. […] The experiment was repeated 3 times.

[3] = tested on: U118MG cell line; experiment: Western immunoblot for cleaved PARP; format: cell-based; conditions: experiments repeated as for U87MG
[4] = tested on: C8161 xenografts; experiment: Murine xenograft model, cleaved caspase-3 immunohistochemistry; format: in vivo, nude mice
Experimental: hGRM-positive C8161 cells (1×10^6) were injected into the flanks of 6-week-old nude mice (Taconic). […] At 24, 48, and 72 hours after the second dose of irradiation, mice in each group were sacrificed and tumor samples were removed. Half of the samples were snap-frozen for further molecular studies, and the other half was fixed in formalin for histologic analysis. The antibody to activated caspase-3 was utilized to visualize apoptotic cells. The average number of apoptotic cells per tumor was calculated by counting the apoptotic cells in 10 random highpowered fields.
Cleaved caspase-3 immunohistochemistry. Immunodeficient nude mice were purchased from Taconic. C8161 cells were injected into flanks bilaterally at 10^6 cells per site. Tumor size was measured with a vernier caliper. When tumor volumes reached 6 to 10 mm^3 the mice were randomly grouped into various treatments. Each treatment group consisted of 10 mice. […] At 24, 48, and 72 hours after the second dose of irradiation, mice in each group were sacrificed and tumor samples were removed. Half of the samples were snap-frozen for further molecular studies, and the other half was fixed in formalin for histologic analysis. The antibody to activated caspase-3 was utilized to visualize apoptotic cells.

[5] = tested on: D3-vec cells; experiment: Immunofluorescence for 53BP1 and γ-H2AX foci in apoptosis-deficient cells; format: cell-based, mouse; conditions: empty vector controls; treated for various time points up to 24 hours
Text: (§1) These treated cells were stained with γ-H2AX and 53BP1, both known to localize at sites of DNA double stranded breaks.

[6] = tested on: D3-mGRM1 cells; experiment: as above; format: cell-based, mouse; conditions: treated for various time points up to 24 hours
Text: as §1

[7] = tested on: C8161 hGRM1-positive human melanoma cells; conditions: riluzole plus irradiation (2 or 4 Gy) compared with irradiation alone
Experimental: Both sets of cells were irradiated at 2 or 4 Gy. Lysates were made at 24, 48, or 72 hours after irradiation. Protein lysates were prepared by washing cells with PBS, adding extraction buffer [50 mmol/L Tris, 150 mmol/L NaCl, 1 mmol/L EDTA (pH 8.0)], 1% NP40, 5% glycerol, 1 mmol/L Dithiothreitol, complete protease inhibitor cocktail (Roche), and phosphatase inhibitors I and II (Sigma). The samples were resolved in 10% gels (Bio-Rad), after which they were transferred onto nitrocellulose membranes. Membranes were blocked with 5% milk and 1% bovine serum albumin and then probed with antibodies against PARP and cleaved caspase-3. The same blot was probed with alpha-tubulin to show equal loading.
Cells were either treated with IR at 2 Gy (2) or 4 GY (4) or not treated (0). Lysates were made immediately after IR or at 24 hours after IR and probed with anti-PARP and anticleaved PARP antibodies to assess apoptotic cells. The same blot was probed with a-tubulin to show equal loading.

[8] = tested on: glioma cells; experiment: γ-H2AX Western blot and γ-H2AX/53BP1 immunofluorescence; format: cell-based
[9] = tested on: hGRM1-positive C8161 human melanoma cells; conditions: riluzole for 24 hours, then ionizing radiation; PE=12%
Experimental: (§2) hGRM1-expressing C8161 [wild type (wt) for RAS and BRAF] and UACC903 (wt for RAS, mutated B-RAF, V600E) human melanoma cell line and hGRM1-negative melanoma cell line UACC930 (wt for RAS, mutated B-RAF, V600E), were obtained from Dr. Mary J. C. Hendrix (Children's Memorial Research Center, Chicago, IL) and Dr. Jeffrey M. Trent (Translational Genomics Research Center, Phoenix, AZ), respectively. Cells were cultured in monolayer at 37° C. in a 5% CO2 humidified incubator, in RPMI (InVitrogen) supplemented with 10% fetal bovine serum (Sigma).
(§3) Cells were trypsinized for retrieval and plated on 100-mm plates and allowed to attach overnight for 20 hours. […] Cells were irradiated by a Gamma Cell 40 Exactor (MDS Nordion) irradiator and then incubated overnight (20 hours). Drug was aspirated and culture media replaced at 20 hours. Plates were then monitored for 10 to 21 days and stained with crystal violet for visual counting. Colonies which contained more than 50 cells were scored as clonogenic survivors.
(§4) All clonogenic assays and cell cycle analyses experiments were repeated 3 times and the triplicate results are shown.

[10] = tested on: hGRM1-positive UACC903 human melanoma cells; conditions: riluzole for 24 hours, then ionizing radiation; PE=19%
Experimental: as §2, §3, §4

[11] = tested on: C8161 xenografts
Experimental: Immunodeficient nude mice were purchased from Taconic. C8161 cells were injected into flanks bilaterally at 10^6 cells per site.

[12] = tested on: LN229 cell line; experiment: Western immunoblot for cleaved PARP; format: cell-based; conditions: experiments repeated as for U87MG
[13] = tested on: U87MG cells; experiment: ROS measurement by flow cytometry (2′,7′-dichlorodihydrofluorescein diacetate); format: cell-based; conditions: 10 uM riluzole for various time periods versus vehicle
Experimental: (§5) The cells were incubated with 2′,7′-dichlorodihydrofluorescein diacetate (Sigma) for 20 min at 37 deg.

[14] = tested on: LN229 cells; experiment: as above; format: cell-based; conditions: 10 uM riluzole for various time periods versus vehicle
Experimental: as §5

Nc1nc2ccc(OC(F)(F)F)cc2s1 [Riluzole, riluzole]
levels of cleaved PARP [1]: higher levels of cleaved PARP | Sub G1 ([2]; Radiation followed by Riluzole): 24.91 | Sub G1 ([2]; Riluzole followed by Radiation): 3.59 | G2/M fraction ([2]; cells treated with riluzole prior to irradiation): clear spike in the G2/M fraction | G2/M fraction ([2]; reverse sequence (irradiation before riluzole)): no such effect | levels of cleaved PARP [3]: identical results | number of apoptotic tumor cells (immunohistochemistry) ([4]; riluzole 10 mg/kg oral gavage plus 2 x 4 Gy irradiation versus irradiation alone or control groups, P<0.001): significant increase | number of apoptotic tumor cells (immunohistochemistry) ([4]; riluzole plus irradiation versus riluzole alone, 24- and 48-hour time points, P<0.01): significant difference | 53BP1 and γ-H2AX foci (DNA double stranded breaks) [5]: not vector controls | 53BP1 and γ-H2AX foci (DNA double stranded breaks) [6]: induction of clear nuclear 53BP1 and γ-H2AX foci | levels of cleaved PARP [7]: further augmented levels of cleaved PARP | co-localization of γ-H2AX and 53BP1 (immunofluorescence) [8]: Co-localization was demonstrated | γ-H2AX Western blot (DNA damage) ([8]; cell lysates): caused DNA damage | dose-modifying factor (DMF) [9]: 1.48 | dose-modifying factor (DMF) [10]: 1.30 | effect of the combination on growth of xenografts ([11]; riluzole (10 mg/kg) plus IR, 25 days of treatment): at least an additive effect | DNA damage as measured by foci of gH2AX on immunohistochemistry ([11]; xenograft harvests, riluzole plus irradiation): markedly enhanced DNA damage | levels of cleaved PARP [12]: identical results | ROS (oxidation of fluorochrome fluorescence) [13]: enhanced ROS | ROS (oxidation of fluorochrome fluorescence) [14]: enhanced ROS

C=C1C[C@@H]2COC(=O)[C@]2(Cc2ccc3ccccc3c2)C1 [BAY 36-7620]
G2/M synchronization ([2]; treatment of C8161 cells with the compound): no G2/M synchronization
